“Also recorded” adds a separate entry of the source. Where two headings read alike, the source gives them in different places.
Key:
[1] = system: C4-2 CRPC cells expressing histone H2B-mCherry and mEmerald-tubulin; experiment: Time-lapse live-cell microscopy and spindle orientation analysis; format: cell-based; conditions: for frequency of division not parallel to the growth surface: live-cell microscopy; for spindle orientation / spindle rotation during mitosis: net angular displacement and cumulative angular distance
Experimental: C4-2 CRPC cells expressing histone H2B-mCherry and mEmerald-tubulin. were plated in 12-well plates in phenol red free media, the following day drugs were added as indicated and the cells were imaged on a EVOS™ FL Auto Cell Imaging System equipped with an onstage incubator to maintain 37° C., adequate humidity, and 5% CO2. Images were acquired at 15-minute intervals for 72 hours using a 20× objective lens. For the rotation analysis, the angle of the spindles major axis was tracked starting from when it was first apparent, prometaphase, until telophase. The net angular displacement is the total change in angle of the spindle during mitosis from start until finish and is the absolute value of the sum of all stepwise rotations. The cumulative angular distance is the total amount of rotation regardless of direction that occurred during mitosis and is the sum of the absolute value of all rotations.

[2] = system: C4-2 CRPC cells; experiment: Identification of mitotic (pHH3) and apoptotic (cleaved caspase-3) cells by flow cytometry; format: cell-based; conditions: drug added to onvansertib
Experimental: C4-2 CRPC cells were plated in 6-well plates at a density of 300,000 cells per well and a total volume of 3 mls. The following day the indicated drugs were diluted in the appropriate growth media while maintaining a constant final concentration of DMSO and added to the wells. After the indicated amount of time cells were harvested by trypsinization. The media, trypsin and PBS wash were collected together to avoid loss of loosely attached or detached cells. Cells were fixed in 4% formaldehyde in PBS for 15 minutes, washed with PBS containing 1% bovine serum albumin (PBS-BSA), and then stored in methanol at −20° C. overnight. Cells were then washed twice in PBS-BSA 0.1% Tween-20, incubated with primary antibodies overnight at 4° C., washed with PBS-BSA 0.1% Tween-20 and incubated for 1 hour with fluorescent-dye conjugated secondary antibodies (diluted 1:200, Alexa Fluor, Molecular Probes) at room temperature for 1 hour. Primary antibodies included anti-phospho-serine 10 histone H3 (clone 3H10, Millipore) and anti-active caspase-3 (clone C92-605, BD Pharmingen). The fixed cells were then washed with PBS-BSA 0.1% Tween-20 and resuspended in PBS containing 1 μg/ml 4,6-diamidino-2-phenylindole (DAPI, Molecular Probes) to stain DNA and analyzed using a BD™ LSRII flow cytometer (Becton Dickinson) and the FlowJo™ software package.

[3] = system: C4-2 castrate resistant prostate cancer cells; experiment: Cell viability (CellTiter-Glo, 72 h) of drug combinations vs Bliss expected; format: cell-based; conditions: for tumor cell killing of PLK inhibitor combined with abiraterone, vs expected additive: C4-2 CRPC cells, 72 hours, Bliss independence
[4] = system: HCT116, NCI-H460, and taxane-resistant CXB1 colon carcinoma xenografts; conditions: mouse model; ~25 mg/kg/day; cited from earlier work
[5] = cited from earlier work
[6] = advanced solid tumors; cited from earlier work
[7] = system: panel of >50 other kinases; conditions: concentrations up to 10 μM; in vitro; cited from earlier work
[8] = system: BT20 cells xenograft; conditions: 200 mg/kg; cited from earlier work
[9] = molecular target: several tyrosine kinases and cyclin-dependent kinase 1 (Cdk1); conditions: cited from earlier work
[10] = system: Bel-7402, MCF-7, and MIA-PaCa cells xenografts; conditions: 250 mg/kg; Bel-7402, MCF-7, MIA-PaCa xenografts; cited from earlier work
[11] = cited from earlier work; remark: listed apart in the source
[12] = system: various human tumor cell lines; conditions: cited from earlier work
[13] = molecular target: PLK1 (Homo sapiens, UniProt P53350); conditions: cited from earlier work
[14] = system: mouse xenograft models; conditions: 10 mg/kg and 20 mg/kg on days 1 and 28; cited from earlier work
[15] = system: prostate cancer cell PC3; conditions: read-out: anti-proliferative IC50; cited from earlier work
[16] = system: breast cancer cell MDA-MB-468; conditions: read-out: anti-proliferative IC50; cited from earlier work
[17] = system: lung cancer cell line H82; conditions: read-out: anti-proliferative IC50; cited from earlier work
[18] = system: skin cancer cell A375; conditions: read-out: anti-proliferative IC50; cited from earlier work
[19] = system: HT-29 human colorectal tumors; conditions: HT-29 tumors in nude mouse, cited from earlier work
[20] = system: colorectal cancer cell HT-29; conditions: read-out: anti-proliferative IC50; cited from earlier work
[21] = cited from earlier work; remark: listed apart in the source
[22] = system: xenograft tumor models; conditions: under proper dose scheduling; cited from earlier work
[23] = doses of 24 to 48 mg/m^2 for 5 consecutive days every 4 weeks; cited from earlier work
[24] = cited from earlier work; remark: listed apart in the source
[25] = preclinical, cited from earlier work
[26] = system: cell mitosis; conditions: read-out: EC50, inhibition of cell mitosis; cited from earlier work
[27] = system: Cdc25C-T96 phosphorylation; conditions: read-out: EC50, Cdc25C-T96 phosphorylation; cited from earlier work
[28] = system: large number of cell lines, solid and hematological tumors; conditions: cited from earlier work
[29] = system: tumor cells and normal cells; conditions: cited from earlier work
[30] = system: OAW28 ovarian cancer cells; experiment: Cell viability (CellTiter-Glo, 72 h) of drug combinations vs Bliss expected; format: cell-based; conditions: onvansertib 15 nM plus abiraterone
[31] = system: PSN-1 pancreatic cancer cells; experiment: as above; format: cell-based; conditions: onvansertib 22.2 nM plus abiraterone
[32] = system: Panc 10.05 pancreatic cancer cells; experiment: as above; format: cell-based; conditions: onvansertib 33.3 nM plus abiraterone
[33] = system: MV-4-11 acute myeloid leukemia cells; experiment: as above; format: cell-based; conditions: onvansertib 22.2 nM plus abiraterone
[34] = system: OCI-AML-3 acute myeloid leukemia cells; experiment: as above; format: cell-based; conditions: onvansertib 22.2 nM plus abiraterone
[35] = system: LNCaP androgen-dependent prostate cancer cells; experiment: as above; format: cell-based; conditions: Bliss independence
[36] = system: more than 90 cell lines (multiple cancer types); experiment: Combinatorial drug screening of more than 90 cell lines for more than additive effect; format: cell-based; conditions: onvansertib and abiraterone; more than 90 cell lines screened; data not shown
[37] = system: several tumor cell lines, including those that express MDR1; conditions: including lines that express multidrug-resistant protein 1 (MDR1); cited from earlier work
[38] = cited from earlier work; remark: listed apart in the source

Chain of PLK1 (P53350 whole entry): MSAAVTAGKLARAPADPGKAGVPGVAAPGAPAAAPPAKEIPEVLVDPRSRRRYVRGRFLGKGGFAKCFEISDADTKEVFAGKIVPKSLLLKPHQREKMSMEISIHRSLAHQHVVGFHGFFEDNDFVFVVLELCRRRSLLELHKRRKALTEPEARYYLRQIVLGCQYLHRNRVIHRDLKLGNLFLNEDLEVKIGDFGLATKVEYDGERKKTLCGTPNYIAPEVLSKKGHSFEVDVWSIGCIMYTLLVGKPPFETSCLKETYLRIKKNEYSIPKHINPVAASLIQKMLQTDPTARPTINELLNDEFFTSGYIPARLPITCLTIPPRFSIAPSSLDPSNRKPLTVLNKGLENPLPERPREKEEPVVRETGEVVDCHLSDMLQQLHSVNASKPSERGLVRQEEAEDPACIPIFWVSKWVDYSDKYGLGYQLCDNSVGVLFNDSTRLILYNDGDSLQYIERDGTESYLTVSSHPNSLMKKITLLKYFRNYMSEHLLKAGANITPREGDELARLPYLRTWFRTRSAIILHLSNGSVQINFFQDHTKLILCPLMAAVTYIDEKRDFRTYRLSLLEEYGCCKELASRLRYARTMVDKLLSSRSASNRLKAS

Question: Which results are given for `CNC(=O)c1ccc(N2C(=S)N(c3ccc(C#N)c(C(F)(F)F)c3)C(=O)C2(C)C)cc1F` [enzalutamide]?
Answer: frequency of division not parallel to the growth surface [1]: did not result in these phenotypes; spindle orientation / spindle rotation during mitosis [1]: did not result in these phenotypes; effect on mitotic arrest (pHH3 positive cells) caused by PLK1 inhibitor onvansertib [2]: does not enhance the mitotic arrest; more than additive effect with PLK1 inhibitors ([3]; C4-2 cells, enzalutamide combined with onvansertib or BI2536): not observed

Question: Which “growth of multiple human carcinoma xenografts” value [4] does the source give for `CC[C@@H]1C(=O)N(C)c2cnc(Nc3ccc(C(=O)N[C@H]4CC[C@H](N5CCN(CC6CC6)CC5)CC4)cc3OC)nc2N1C(C)C` [BI6727, volasertib] here?
Answer: The value was “significantly inhibits the growth”.

Question: And the “recommended dose for further development” value ([5]; based on overall tolerability)?
Answer: Its value is 300 mg.

Question: And the MTD ([5]; i.v. once every 3 weeks, advanced solid tumors)?
Answer: The MTD was 400 mg.

Question: And the DLTs ([5]; i.v. once every 3 weeks, dose escalation 12-450 mg)?
Answer: The DLTs was “neutropenia, thrombocytopenia, and febrile neutropenia”.

Question: And the “tumor cell killing of PLK inhibitor combined with abiraterone, vs expected additive” value [3]?
Answer: Its value is “more than additive”.

Question: What about the “MTD in combination with afatinib” value [6] of the same compound?
Answer: Its value is 300 mg.

Question: And the “inhibitory activity against a panel of >50 other kinases” value [7]?
Answer: Its value is “no inhibitory activity”.

Question: Which “frequency of division not parallel to the growth surface” value [1] does the source give for `C[C@]12CC[C@H](O)CC1=CC[C@@H]1[C@@H]2CC[C@]2(C)C(c3cccnc3)=CC[C@@H]12` [abiraterone] here?
Answer: Its value is “increased”.

Question: And the “spindle orientation / spindle rotation during mitosis” value [1]?
Answer: Its value is “disrupted proper spindle orientation”.

Question: What about the “effect on apoptotic cell death (cleaved Caspase-3 positive cells) after onvansertib” value [2] of the same compound?
Answer: Its value is “exacerbates subsequent apoptotic cell death”.

Question: And the “effect on mitotic arrest (pHH3 positive cells) caused by PLK1 inhibitor onvansertib” value [2]?
Answer: The value was “dramatically increased the frequency of mitotic arrest; also recorded: enhances the mitotic arrest”.

Question: Which tumor growth [8] does the source give for `COc1cc(OC)c(/C=C/S(=O)(=O)Cc2ccc(OC)c(NCC(=O)[O-])c2)c(OC)c1.[Na+]` [ON 01910, rigosertib] here?
Answer: Its tumor growth is “inhibition of tumor growth”.

Question: What about the IC50 [9] of the same compound?
Answer: The IC50 was 18 to 260 nM.

Question: What about the tumor growth [10] of the same compound?
Answer: Its tumor growth is “inhibited tumor growth”.

Question: What about the DLT ([11]; at the MTD) of the same compound?
Answer: Its DLT is “Grade 3 abdominal pain”.

Question: And the MTD ([11]; i.v., days 1, 4, 8, 11, 15, and 18 in 28-day cycles)?
Answer: The MTD was 3,120 mg.

Question: Which results are given for `COc1ccc(S(=O)(=O)Nc2ccccc2/C=C/c2cc[n+]([O-])cc2)cc1` [HMN-176]?
Answer: cytotoxicity toward various human tumor cell lines [12]: potent cytotoxicity; enzymatic activity of PLK1 ([13]; affects subcellular distribution of PLK1 instead): does not directly inhibit; antitumor activity in mouse xenograft models [14]: potent antitumor activity

Question: For `COc1cc(C(=O)NC2CCN(C)CC2)ccc1NC1NCC2C(N1)N(C1CCCC1)CC(F)(F)C(=O)N2C` (stereo not shown) [RO3280], which IC50 [15] is on record?
Answer: Its IC50 is 12 nM.

Question: What about the IC50 [16] of the same compound?
Answer: Its IC50 is 19 nM.

Question: What about the IC50 [17] of the same compound?
Answer: Its IC50 is 5 nM.

Question: And the IC50 [18]?
Answer: The IC50 was 70 nM.

Question: What about the IC50 [13] of the same compound?
Answer: The IC50 was 3 nM.

Question: What about the antitumor activity ([19]; dosed more frequently) of the same compound?
Answer: Its antitumor activity is “complete tumor regression”.

Question: And the tumor growth inhibition ([19]; once weekly at 40 mg/kg)?
Answer: Its tumor growth inhibition is 72%.

Question: And the IC50 [20]?
Answer: The IC50 was 10 nM.

Question: Which DLTs ([21]; i.v., schedules A and B, 28-day cycle) does the source give for `C[C@@H](Oc1cc(-n2cnc3ccc(CN4CCN(C)CC4)cc32)sc1C(N)=O)c1ccccc1C(F)(F)F` [GSK461364] here?
Answer: Its DLTs is “grade 4 neutropenia, sepsis, and pulmonary embolism”.

Question: And the “incidence of venous thrombotic emboli (VTE)” value ([21]; in vivo)?
Answer: Its value is 20%.

Question: What about the “final recommended phase II dose” value ([21]; intravenously, schedule A (days 1, 8, and 15)) of the same compound?
Answer: Its value is 225 mg.

Question: And the “tumor cell killing of PLK inhibitor combined with abiraterone, vs expected additive” value [3]?
Answer: The value was “more than additive”.

Question: And the “effect in xenograft tumor models” value [22]?
Answer: Its value is “tumor regression”.

Question: For `COc1ccc(S(=O)(=O)N(C(C)=O)c2ccccc2/C=C/c2cc[n+]([O-])cc2)cc1` [HMN-214], which DLTs [23] is on record?
Answer: Its DLTs is “prolonged neutropenia, febrile neutropenia, neutropenic sepsis, electrolyte disturbance, neuropathy, and myalgia”.

Question: What about the dose-limiting toxicities ([24]; at 9.9 mg/m^2/d) of the same compound?
Answer: The dose-limiting toxicities was “severe myalgia/bone pain syndrome and hyperglycemia”.

Question: And the “maximum tolerated dose and recommended dose” value ([24]; continuous 21-day dosing schedule every 28 days)?
Answer: The value was 8.0 mg/m^2/d.

Question: Which results are given for `Cc1ncc(CCCN(C)C)cc1Nc1ncc2c(n1)-c1ccc(C(F)(F)F)cc1NC(=S)C2` [MLN0905]?
Answer: maximum tolerated dose ([25]; QD (daily) schedule): 6.25 mg/kg; maximum tolerated dose ([25]; QD×3/wk (3-days on/4-days off) schedule): 14.5 mg/kg; EC50 [26]: 9 nM; EC50 [27]: 29 nM

Question: For `CN1CCN(c2ccc(OC(F)(F)F)c(Nc3ncc4c(n3)-c3c(c(C(N)=O)nn3CCO)CC4)c2)CC1` [onvansertib], which “activity in proliferation assays” value [28] is on record?
Answer: Its value is “low nanomolar activity”.

Question: What about the “sensitivity of tumor cells to induced cell death relative to normal cells” value [29] of the same compound?
Answer: The value was 10 fold.

Question: And the “response to the combination of abiraterone and PLK1 inhibitor vs expected additive” value [30]?
Answer: Its value is “do not have a greater than additive response”.

Question: What about the “tumor cell killing of PLK inhibitor combined with abiraterone, vs expected additive” value [3] of the same compound?
Answer: The value was “more than additive”.

Question: What about the “response to the combination of abiraterone and PLK1 inhibitor vs expected additive” value [31] of the same compound?
Answer: The value was “greater than additive response”.

Question: And the “response to the combination of abiraterone and PLK1 inhibitor vs expected additive” value [32]?
Answer: Its value is “do not have a greater than additive response”.

Question: And the “response to the combination of abiraterone and PLK1 inhibitor vs expected additive” value [33]?
Answer: The value was “greater than additive response”.

Question: And the “response to the combination of abiraterone and PLK1 inhibitor vs expected additive” value [34]?
Answer: The value was “do not have a greater than additive response”.

Question: And the “viability effect of PLK1 inhibitor combined with abiraterone, vs expected additive” value [35]?
Answer: The value was “No greater than additive effect”.

Question: And the “cell lines in which the more than additive effect was detected” value [36]?
Answer: The value was “approximately 30%”.

Question: For `COc1cc(C(=O)NC2CCN(C)CC2)c(F)cc1Nc1ncc2c(n1)N(C1CCCC1)CC(F)(F)C(=O)N2C` [TAK-960], which “activity in tumor cell lines” value [37] is on record?
Answer: The value was “shown activity”.

Question: For `CC(=O)O[C@H]1CC[C@@]2(C)C(=CC[C@@H]3[C@@H]2CC[C@]2(C)C(c4cccnc4)=CC[C@@H]32)C1` [Abiraterone acetate, abiraterone acetate], which solubility in water [38] is on record?
Answer: The solubility in water was “practically insoluble”.

Source: patent publication US20220127682A1, “SELECTION AND TREATMENT OF CANCER WITH COMBINATION THERAPIES” (Massachusetts Institute of Technology, priority 2020, published 2022)
